ChEMBL document CHEMBL4359852, “Design, synthesis and biological evaluation of novel 5-(piperazin-1-yl)quinolin-2(1H)-one derivatives as potential chitin synthase inhibitors and antifungal agents” (Eur J Med Chem, 2019)
In brackets after ≈: the same amount, converted by molar mass.

Columns and labels:
Staphylococcus aureus [1] = test: Antibacterial activity against methicillin resistant Staphylococcus aureus N 315 assessed as reduction in bacterial cell growth incubated for overnight by two-fold serial dilution method; assay type: functional
Proteus vulgaris = test: Antibacterial activity against Bacillus proteus ATCC 8427 assessed as reduction in bacterial cell growth incubated for overnight by two-fold serial dilution method; assay type: functional
Escherichia coli = test: Antibacterial activity against Escherichia coli JM109 assessed as reduction in bacterial cell growth incubated for overnight by two-fold serial dilution method; assay type: functional
Pseudomonas aeruginosa = test: Antibacterial activity against Pseudomonas aeruginosa ATCC 9027 assessed as reduction in bacterial cell growth incubated for overnight by two-fold serial dilution method; assay type: functional
Candida albicans = test: Antifungal activity against Candida albicans ATCC 76615 assessed as reduction in fungal cell growth incubated for 48 hrs by two-fold serial dilution method; assay type: functional; settings: ATCC 76615, 48 h
Aspergillus flavus = test: Antifungal activity against Aspergillus flavus ATCC 16870 assessed as reduction in fungal cell growth incubated for 48 hrs by two-fold serial dilution method; assay type: functional; settings: ATCC 16870, 48 h
Cryptococcus neoformans = test: Antifungal activity against Cryptococcus neoformans ATCC 32719 assessed as reduction in fungal cell growth incubated for 48 hrs by two-fold serial dilution method; assay type: functional; settings: ATCC 32719, 48 h
Bacillus subtilis = test: Antibacterial activity against Bacillus subtilis ATCC 6633 assessed as reduction in bacterial cell growth incubated for overnight by two-fold serial dilution method; assay type: functional
Staphylococcus aureus [2] = test: Antibacterial activity against Staphylococcus aureus ATCC 25923 assessed as reduction in bacterial cell growth incubated for overnight by two-fold serial dilution method; assay type: functional
Saccharomyces cerevisiae = test: Inhibition of Saccharomyces cerevisiae CGMCC 2.145 chitin synthase using GlcNAc and UDP-GlcNAc as substrate at 300 ug/ml incubated for 60 mins by microplate reader analysis relative to control
[3] = Inhibition of Saccharomyces cerevisiae CGMCC 2.145 chitin synthase using GlcNAc and UDP-GlcNAc as substrate incubated for 60 mins by microplate reader analysis

SMILES | MIC (Staphylococcus aureus [1]) [µg/mL] | MIC (Proteus vulgaris) [µg/mL] | MIC (Escherichia coli) [µg/mL] | MIC (Pseudomonas aeruginosa) [µg/mL] | MIC (Candida albicans) [µg/mL] | MIC (Aspergillus flavus) [µg/mL] | MIC (Cryptococcus neoformans) [µg/mL] | MIC (Bacillus subtilis) [µg/mL] | MIC (Staphylococcus aureus [2]) [µg/mL] | inhibition (Saccharomyces cerevisiae) [%] | IC50 [3] [µM]
Cl.O=C1CCc2c(cccc2N2CCN(CC(O)CN3CCOCC3)CC2)N1 (racemic) | 128 | 128 | 128 | 128 | 64 | 256 | 256 | 128 | 256 | 44.7 | 
Cl.O=C1CCc2c(cccc2N2CCN(C[C@H](O)CNc3ccc(Br)cc3)CC2)N1 | 64 | 256 | 128 | 128 | 128 | 64 | 128 | 128 | 64 |  | 330
Cl.O=C1CCc2c(cccc2N2CCN(CC(O)CN3CCCC3)CC2)N1 (racemic) | 256 | 256 | 128 | 512 | 128 | 256 | 256 | 256 | 256 | 49.9 | 
Cl.O=C1CCc2c(cccc2N2CCN(CC(O)CNc3cccc4ccccc34)CC2)N1 (racemic) | 128 | 128 | 128 | 128 | 128 | 512 | 256 | 256 | 128 | 47.5 | 
Cl.O=C1CCc2c(cccc2N2CCN(C[C@H](O)CNc3ccc(Cl)cc3)CC2)N1 | 128 | 128 | 128 | 256 | 32 | 128 | 256 | 128 | 128 |  | 380
CCn1cc(C(=O)O)c(=O)c2cc(F)c(N3CCNCC3)cc21 [NORFLOXACIN] | 2 (≈ 6.26 µM) | 2 (≈ 6.26 µM) | 1 (≈ 3.13 µM) | 0.5 (≈ 1.57 µM) |  |  |  | 1 (≈ 3.13 µM) | 2 (≈ 6.26 µM) |  | 
CCCCNC[C@@H](O)CN1CCN(c2cccc3c2CCC(=O)N3)CC1.Cl | 256 | 256 | 256 | 256 | 128 | 256 | 128 | 256 | 256 |  | 310
Cl.O=C1CCc2c(cccc2N2CCN(C[C@@H](O)CNc3ccc(Br)cc3)CC2)N1 | 128 | 128 | 256 | 128 | 64 | 128 | 128 | 64 | 64 |  | 350
Cl.O=C1CCc2c(cccc2N2CCN(CC(O)Cn3cnnc3)CC2)N1 (racemic) | 256 | 64 | 64 | 128 | 64 | 256 | 128 | 128 | 128 | 30.8 | 
Cl.O=C1CCc2c(cccc2N2CCN(CC(O)CNCc3ccc(Cl)cc3)CC2)N1 (racemic) | 256 | 128 | 256 | 256 | 128 | 256 | 256 | 256 | 256 | 42.5 | 
CN[C@@H]1[C@H](O[C@H]2[C@H](O[C@H]3[C@H](O)[C@@H](O)[C@H](N=C(N)N)[C@@H](O)[C@@H]3N=C(N)N)O[C@@H](C)[C@]2(O)C=O)O[C@@H](CO)[C@H](O)[C@H]1O.CN[C@@H]1[C@H](O[C@H]2[C@H](O[C@H]3[C@H](O)[C@@H](O)[C@H](N=C(N)N)[C@@H](O)[C@@H]3N=C(N)N)O[C@@H](C)[C@]2(O)C=O)O[C@@H](CO)[C@H](O)[C@H]1O.O=S(=O)(O)O.O=S(=O)(O)O.O=S(=O)(O)O [STREPTOMYCIN SULFATE] | 32 | 16 | 4 | 16 |  |  |  | 8 | 8 |  | 
Cc1ccc(NCC(O)CN2CCN(c3cccc4c3CCC(=O)N4)CC2)cc1.Cl (racemic) | 64 | 64 | 128 | 128 | 128 | 128 | > 512 | 128 | 64 | 17.6 | 
Cl.O=C1CCc2c(cccc2N2CCN(CC(O)CN3CCCCC3)CC2)N1 (racemic) | 512 | 256 | 128 | 256 | 64 | 256 | 256 | 256 | 256 | 32.4 | 
CC(C)(C)NCC(O)CN1CCN(c2cccc3c2CCC(=O)N3)CC1.Cl (racemic) | 256 | 256 | 256 | 128 | 128 | 256 | 256 | 512 | 256 | 48.3 | 
